{"source": "patent US20230172912A1", "about": "“COMPOUNDS FOR TREATING PNEUMONIA, SEPSIS, AND CORONAVIRUS INFECTION” (HEIDELBERG IMMUNOTHERAPEUTICS GMBH, priority 2020, published 2023)", "molecules": {"B1": {"name": "leronlimab: humanized IgG4 monoclonal antibody that blocks the chemokine receptor CCR5 on immune cells (antibody, chains of the INN, looked up, V domains shown)", "VH": "EVQLVESGGGLVKPGGSLRLSCAASGYTFSNYWIGWVRQAPGKGLEWIGDIYPGGNYIRNNEKFKDKTTLSADTSKNTAYLQMNSLKTEDTAVYYCGSSFGSNYVFAWFTYWGQGTLVTVSS", "VL": "DIVMTQSPLSLPVTPGEPASISCRSSQRLLSSYGHTYLHWYLQKPGQSPQLLIYEVSNRFSGVPDRFSGSGSGTDFTLKISRVEAEDVGVYYCSQSTHVPLTFGQGTKVEIK"}}, "key": {"[1]": {"assay": "Safety and clinical laboratory parameters during maraviroc treatment of severe COVID-19", "format": "in vivo, human", "method": "(§1) Clinical laboratory parameters were monitored daily. If patients gave voluntary consent, additional blood for cytokine and chemokine profiling in a research context was obtained and stored at -80° C. until use in the multiplex analysis (Bio-Plex Pro Human Cytokine 48-Plex Screening Panel plus ICAM and VCAM, Biorad, Munich, Germany) as described previously (Halama N, Michel S, Kloor M, et al., Cancer Res 2011;71:5670-7). Median protein concentrations per patient were compared in two groups: before and five or more days after the first day of maraviroc treatment.\nMonitoring of clinical laboratory parameters also included, among others, serum levels of creatinine for kidney function, white blood count, lymphocyte count, and interleukin 6 (IL-6) as markers of inflammation and infection."}, "[2]": {"tested_on": "SARS-CoV-2 pneumonia", "assay": "Time course of clinical inflammation parameters (CRP, transferrin saturation, IL-6) in serum of COVID-19 pneumonia patients", "format": "in vivo, human", "conditions": "COVID-19 pneumonia patients on standard therapy (piperacillin/tazobactam, caspofungin, hydroxychloroquine), FIG. 1", "method": "Patients with diagnosed SARS-CoV-2 pneumonia received standard therapy with piperacillin/tazobactam, caspofungin, and hydroxychloroquine; where deemed clinically necessary, additionally Maraviroc, a CCR5 inhibitor, was administered as indicated in FIG. 1.\nPatient characteristics were as follows: • Patient A (FIG. 1A): person, no relevant previous disease; • Patient B (FIG. 1B): person; • Patient C (FIG. 1C): person, no relevant previous disease; • Patient D (FIG. 1 D): person, state after chemotherapy for Burkitt lymphoma; under artificial respiration; • Patient E (FIG. 1E): person; • Patient F (FIG. 1 F): person; • Patient G (FIG. 1G): person, under artificial respiration; • Patient H (FIG. 1 H):person; • Patient I (FIG. 1 I): person; • Patient K (FIG. 1 K): person"}, "[3]": {"tested_on": "serum cytokines and chemokines (IL-6, MIP-1b, IP-10, M-CSF)", "assay": "Clinical laboratory IL-6 and research serum cytokine and chemokine multiplex analysis before and after maraviroc", "format": "in vivo, human", "method": "as §1\nFor research cytokine analyses, cytokines which were undetectable in more than 3 samples were excluded. Correction for batch effects from three experiments was performed using the Python packagepycombat (version 0.14), and was validated by analyzing the mixture of samples within UMAP embeddings (McInnes L, Healy J, Melville J. UMAP: Uniform Manifold Approximation and Projection for Dimension Reduction. arXiv 2018). Wilcoxon signed-rank tests were used when comparing cytokine concentrations between groups. Resulting p-values were adjusted for multiple hypothesis testing according to the Benjamini and Hochberg method (Benjamini Y, Hochberg Y., J R Stat Soc B 1995;57:289-300). Kaplan-Meier estimator of survival was employed to visualize cumulative clinical improvement. Hazard ratio and the logrank test were used to compare improvement between patients in different groups using the R packages survival, survminer, and cmprsk. Stated percentages and quartiles include rounded numbers. Statistical analyses were carried out using R-3.5.3, Python-3.6.4, Excel (Microsoft), and SigmaPlot (Systat Software, Inc)."}, "[4]": {"tested_on": "severe COVID-19 (SARS-CoV-2 infection)", "format": "in vivo"}, "[5]": {"tested_on": "interleukin 6 (IL-6)", "conditions": "5 of 6 patients (range 83 to 8175 pg per milliliter), three days after administration; cited from earlier work"}, "[6]": {"tested_on": "SARS-CoV-2", "conditions": "severe COVID-19 cases; preprint; cited from earlier work"}, "[7]": {"conditions": "Patient 43, day 5, decreased on days 6 and 7"}, "[8]": {"conditions": "serum, subset of 14 patients, p<0.05, not significant after adjustment for multiple testing"}, "[9]": {"conditions": "patients who received at least one dose before or concomitant to maraviroc"}}, "note": "Several values for one entry are separate records, joined by “and”; a condition that tells them apart may be missing. Equal entries are not always repeated. Where two headings read alike, the source gives them in different places.", "data": [{"molecule": "Cc1nnc(C(C)C)n1[C@@H]1C[C@H]2CC[C@@H](C1)N2CC[C@H](NC(=O)C1CCC(F)(F)CC1)c1ccccc1", "note": "[maraviroc, 4,4-difluoro—N—[(1S)-3-[(1S,5R)-3-(3-methyl-5-propan-2-yl-1,2,4-triazol-4-yl)-8-azabicyclo[3.2.1]octan-8-yl]-1-phenylpropyl]cyclohexane-1-carboxamide]", "values": [{"measurement": "novel adverse events", "setting": "[1]; 47 severe COVID-19 patients", "result": "no novel AEs have been observed"}, {"measurement": "increase in ALT from baseline", "setting": "[1]; [7]", "result": 2.8, "unit": "fold"}, {"measurement": "increase in AST from baseline", "setting": "[1]; [7]", "result": 3.6, "unit": "fold"}, {"measurement": "adverse event grade (CTCAE v5.0)", "setting": "[1]; Patient 43, liver function", "result": "grade 2, moderate liver function AE"}, {"measurement": "other changes of clinical laboratory parameters", "setting": "[1]; creatinine, white blood count, lymphocyte count, IL-6 among others, monitored daily", "result": "no other clinically significant changes were observed"}, {"measurement": "increase of inflammation markers after administration", "setting": "[2]", "result": "reverted in a very fast manner in all cases"}, {"measurement": "change in concentration of MIP-1b (CCL4) from before to after treatment", "setting": "[3]; serum, subset of 14 patients, after = 5 days or more after baseline, FIG. 5", "result": "significant increase"}, {"measurement": "change in IP-10 (CXCL10) from before to after treatment", "setting": "[3]; [8]", "result": "decrease"}, {"measurement": "change in M-CSF (CSF1) from before to after treatment", "setting": "[3]; [8]", "result": "decrease"}, {"measurement": "median IL-6 level", "setting": "[3]; three days after administration, decrease from baseline median 74.7 pg per milliliter, p-value=0.002", "result": 37.7, "unit": "pg per milliliter"}, {"measurement": "median time to a substantial clinical improvement from baseline", "setting": "[4]; IQR 7-16 days", "result": 9, "unit": "days"}, {"measurement": "median time to improvement on the ordinal scale from baseline", "setting": "[4]; all patients who improved, IQR 5-13 days", "result": 8, "unit": "days"}, {"measurement": "patients with improvement on the 6-stage ordinal scale", "setting": "[4]; breathing ambient air at baseline, 2 of 2 patients", "result": 100, "unit": "%"}, {"measurement": "patients worsened (died), mortality", "setting": "[4]; invasive mechanical ventilation at baseline, 1 of 11 patients, 40 day observational period", "result": "9.1% and 9%"}, {"measurement": "patients remained under invasive ventilation", "setting": "[4]; invasive ventilation at baseline, 2 of 11 patients", "result": 18.2, "unit": "%"}, {"measurement": "patients with improvement on the 6-stage ordinal scale", "setting": "[4]; invasive ventilation at baseline, 8 of 11 patients", "result": 72.7, "unit": "%"}, {"measurement": "median time to improvement on the ordinal scale from baseline", "setting": "[4]; invasive ventilation at baseline, IQR 5-19 days", "result": 14, "unit": "days"}, {"measurement": "patients showing an improvement during the observational period", "setting": "[4]; maraviroc patients not treated with HCQ, 14 of 18", "result": 77.9, "unit": "%"}, {"measurement": "median time to improvement", "setting": "[4]; maraviroc patients not treated with HCQ, IQR 3-11 days", "result": 7, "unit": "days"}, {"measurement": "patients showing an improvement during the observational period", "setting": "[4]; maraviroc patients treated with at least one dose of HCQ, 22 of 29", "result": 75.9, "unit": "%"}, {"measurement": "median time to improvement", "setting": "[4]; maraviroc patients treated with at least one dose of HCQ, IQR 3-13 days", "result": 6, "unit": "days"}, {"measurement": "patients with improvement on the 6-stage ordinal scale", "setting": "[4]; non-invasive ventilation at baseline, 7 of 11 patients", "result": 63.6, "unit": "%"}, {"measurement": "median time to improvement on the ordinal scale from baseline", "setting": "[4]; not receiving invasive ventilation at baseline, IQR 5-11 days", "result": 7, "unit": "days"}, {"measurement": "patients worsened from non-invasive to invasive ventilation", "setting": "[4]; one patient of 47, after or during maraviroc treatment", "result": 2.1, "unit": "%"}, {"measurement": "patients with no change on the 6-stage ordinal scale", "setting": "[4]; overall cohort, 4 of 47 patients", "result": 8.5, "unit": "%"}, {"measurement": "deaths (overall mortality)", "setting": "[4]; overall cohort, 5 of 47 patients, 40 day time frame, median follow-up 12 days", "result": 11, "unit": "%"}, {"measurement": "patients worsened on the 6-stage ordinal scale", "setting": "[4]; overall cohort, 6 of 47 patients, including deaths", "result": 12.8, "unit": "%"}, {"measurement": "patients discharged", "setting": "[4]; overall cohort, 29 of 47 patients", "result": 61.7, "unit": "%"}, {"measurement": "patients with substantial clinical improvement (decrease of two stages or more or discharge)", "setting": "[4]; overall cohort, 34 of 47 patients, day of final data acquisition", "result": 72, "unit": "%"}, {"measurement": "patients with improvement on the 6-stage ordinal scale", "setting": "[4]; overall cohort, 37 of 47 patients, baseline until last day of data acquisition", "result": 78.7, "unit": "%"}, {"measurement": "clinical outcome of coronavirus infection / severe COVID-19 cases", "setting": "[4]; overall statement", "result": "remarkably positive clinical outcomes"}, {"measurement": "patients with improvement on the 6-stage ordinal scale", "setting": "[4]; supplemental low-flow oxygen at baseline, 20 of 23 patients", "result": 87, "unit": "%"}, {"measurement": "patients with no change", "setting": "[4]; without invasive mechanical ventilation at baseline, 2 of 36 patients", "result": 5.6, "unit": "%"}, {"measurement": "patients worsened", "setting": "[4]; without invasive mechanical ventilation at baseline, 5 of 36 patients", "result": 13.9, "unit": "%"}, {"measurement": "patients improved", "setting": "[4]; without invasive mechanical ventilation at baseline, 29 of 36 patients", "result": 80.6, "unit": "%"}]}, {"molecule": "C[C@]12C=CC(=O)C=C1CC[C@@H]1[C@@H]2[C@@H](O)C[C@@]2(C)[C@H]1CC[C@]2(O)C(=O)CO", "note": "[prednisolone]", "values": [{"measurement": "number of patients who died", "setting": "[4]; in vivo", "result": 1}, {"measurement": "number of patients improved on the ordinal scale from baseline", "setting": "[4]; [9]", "result": "3 of 7"}, {"measurement": "number of patients with no change on the ordinal scale from baseline", "setting": "[4]; [9]", "result": 2}, {"measurement": "number of patients worsened on the ordinal scale from baseline", "setting": "[4]; [9]", "result": 2}]}, {"molecule": "tocilizumab: concomitant investigational treatment", "values": [{"measurement": "number of patients who died", "setting": "[4]; [9]", "result": 3}, {"measurement": "number of patients with no change on the ordinal scale from baseline", "setting": "[4]; [9]", "result": "1 of 4"}, {"measurement": "number of patients worsened on the ordinal scale from baseline", "setting": "[4]; [9]", "result": 3}]}, {"molecule": "B1", "values": [{"measurement": "change of high IL-6 levels", "setting": "[5]", "result": "decreased substantially"}, {"measurement": "change in plasma viral load", "setting": "[6]", "result": "decrease"}]}]}
